# Test results: patent publication US20040229816A1, “Anti-angiogenic and anti-tumoral properties of beta and gamma secretase inhibitors” (priority 2003, published 2004)
# Entries after “also recorded” stand apart in the source; their conditions may differ. Peptide text beside a SMILES is read from it. * marks the point of attachment. Cbz = O=C(OCc1ccccc1)*
# Assays:
# [1] = system: human brain endothelial cells; assay: viability of human brain endothelial cells (LDH activity in culture medium); format: cell-based; conditions: 24 hours; for cellular toxicity / viability of human brain endothelial cells versus control: doses employed; for LDH activity in the culture medium, ANOVA main effect: various doses
# Procedure: Primary cultures of human brain endothelial cells were plated at a density of 10^4 cells/[…] of EBM 4% in 96 wells culture plates and treated with various doses of γ-secretase and β-secretase inhibitors as indicated in the figure legends. Following 24 hours in culture, the EBM covering the cells was removed and assayed for Lacticodehydrogenase (LDH) activity using the cytotoxicity detection kit (Roche Diagnostic Corporation, Ind.). Cells were covered with […] of EBM 4% and cellular proliferation measured using the Quick cell proliferation assay kit (Biovision Research Products, Calif.).
# explants of rat aortae = assay: rat aortic ring model of angiogenesis (microvessel outgrowths); format: cell-based, Sprague Dawley rats; conditions: for sprouting of microvessel outgrowths, overall / dose dependence: day 4, 5 and 6
# Procedure: Twenty four well tissue culture grade plates (Nalgene International, NY) were covered with […] of Matrigel (Becton-Dickinson, Bedford, Mass.) and allowed to gel for 30 min at 37° C., 5% CO2. Briefly, thoracic aortae were excised from 9 month-old Sprague Dawley rats. After removing the fibroadipose tissue, arteries were sectioned into 1 mm long cross sections, rinsed 5 times with EBM (Clonetics Corp.) containing 4% fetal bovine serum (FBS) and placed on the Matrigel coated wells. Artery rings were covered with an additional […] of Matrigel. After polymerization the Matrigel was covered with 1 mL of EBM (4% FBS) containing various doses of Z-VVL-CHO, OM99-2, P10-P4′statV, DAPT, or L-685,458 as indicated in the figure legends (the culture medium was changed every 3 days). Pictures were taken at day 4, 5 and 6 using a 4×objective. Microvessel outgrowth area was quantified using the Image Pro Plus software. Briefly, ring cultures were photographed using a digital video camera linked to an Olympus BX60 microscope. The outgrowth area was delineated and measured with the Image Pro Plus software by using a strategy of microvessel outgrowth detection based on difference in color intensities between the outgrowths, the Matrigel and the artery ring. The artery rings were manually selected and excluded from the area of measurement and the color intensity threshold was adjusted to selectively measure the area occupied by the microvessel outgrowths. Results were expressed as a percentage of the area occupied by microvessel outgrowths at day 4 in control condition.
# [2] = system: human glioblastoma (U-87 MG) xenografts; assay: human glioblastoma U-87 MG xenografts in nude mice; format: in vivo; conditions: Z-VLL-CHO 5 mg/Kg; for vascularization (vascular index) of U-87 MG tumors versus vehicle: DAPT 10 mg/Kg intraperitoneally, CD31/PECAM-1 immunostaining; for growth (tumor volume) of U-87 MG xenografts versus vehicle: intraperitoneally everyday for 9 days, DAPT 10 mg/Kg
# Procedure: FIG. 8a: Anti-tumoral effect of the γ-secretase inhibitor DAPT and of the β-secretase inhibitor Z-VLL-CHO on human glioblastoma (U-87 MG) xenografts growth rates. U-87 MG cells (6×10^6) were injected subcutaneously into both flanks of 8-10 weeks-old nude mice. Mice were injected intraperitoneally with either the vehicle, 5 mg/Kg of body weight of the β-secretase inhibitor Z-VLL-CHO or 10 mg/Kg of body weight of the γ-secretase inhibitor DAPT, starting when tumors had reached a mean tumor volume of approximately 140 mm^3 (day 8 post implantation). Injections were given everyday for 9 days. […] FIG. 8b: Representative pictures of sections of glioblastoma tumors immunostained with CD31 antibodies. FIG. 8c: Histogram depicting the estimation of glioblastoma tumor vascularization.
# (§1) The human glioblastoma U-87 MG and human lung adenocarcinoma A-549 cell lines were obtained from American Tissue Culture Type Collection (Manassas, Va.) and were grown in DMEM containing 1×penicilline-streptomycine-fungizone and 10% fetal bovine serum at 37° C. in a humidified atmosphere of 5% CO2. Tumor cells (6×106) in 100 μl of PBS were inoculated subcutaneously into both flanks of 8-10-week-old female nude mice (Harland). Tumor volume (in mm^3) was determined using the formula (length×width^2)/2, where length was the longest axis and width the measurement at right angles to the length (Clarke et al. 2000). When the tumor volumes reached approximately 150 mm^3, animals were treated intraperitoneally everyday with 100 μl of 50% DMSO/H2O (vehicle group), 5 mg/Kg of body weight of Z-VLL-CHO (β-secretase inhibitor), 5 mg/Kg of JLK-6 (γ-secretase inhibitor) or with 10 mg/Kg of body weight of DAPT. Data were expressed as mean tumor volume±S.E for each treatment group.
# At the completion of the study, animals were humanely euthanized and tumors were harvested and fixed in paraformaldehyde 4% overnight at 4° C. After paraffin embedding in an automated tissue processing Sakura Tissue-Tek (E150) (Torrence, Calif.), samples were cut into 5 μm sections, deparafinized, and rehydrated through a graded series of alcohol. Sections were treated with 0.02 mg/ml Proteinase K (Gentra Systems, MN) for 15 minutes at 37° C. to allow for proper antigen retrieval, washed several times in PBS and incubated for 15 minutes in a 0.3% solution of hydrogen peroxide. […] Quantification of tumor vascularization was performed using the stereological dissector method. […] Microvessels were counted in the dissector frame by an experimenter unaware of the different treatment conditions. For each tumor an average vessel count per area of dissector frame was determined. A vascular index was calculated by expressing the vessel count as a percentage of the vessel count in the vehicle treatment condition.
# [3] = system: human lung adenocarcinoma (A-549) xenografts; assay: human lung adenocarcinoma A-549 xenografts in nude mice; format: in vivo; conditions: Z-VLL-CHO 5 mg/Kg; for vascularization (vascular index) of A-549 tumors versus vehicle: DAPT 10 mg/Kg intraperitoneally, CD31/PECAM-1 immunostaining; for growth (tumor volume) of A-549 xenografts versus vehicle: intraperitoneally everyday for 12 days, DAPT 10 mg/Kg
# Procedure: FIG. 9a: Anti-tumoral effect of the γ-secretase inhibitor DAPT and of the β-secretase inhibitor Z-VLL-CHO on human lung adenocarcinoma (A-549) xenografts growth rates. A-549 cells (8.5×10^6) were injected subcutaneously into both flanks of 8-10 weeks-old nude mice. Mice were injected intraperitoneally with either the vehicle, 5 mg/Kg of body weight of the β-secretase inhibitor Z-VLL-CHO or 10 mg/Kg of body weight of the γ-secretase inhibitor DAPT, starting when tumors had reached a mean tumor volume of approximately 200 mm^3 (day 21 post implantation). Injections were given everyday for 12 days. […] FIG. 9b: Representative pictures of sections of lung adenocarcinoma tumors immunostained with CD31 antibodies. FIG. 9c: Histogram depicting the quantification of the vascularization of lung adenocarcinoma tumors.
# FIG. 10: Anti-tumoral effect of the γ-secretase inhibitor JLK-6 on human lung adenocarcinoma (A-549) xenografts growth rates. A-549 cells (8.5×10^6) were injected subcutaneously into both flanks of 8-10 weeks-old nude mice. Mice were injected intraperitoneally everyday from Day 16 (when the tumors reached a volume of approximately 150 mm^3) with either the vehicle or 5 mg/Kg of body weight of the γ-secretase inhibitor JLK-6.
# as §1
# At the completion of the study, animals were humanely euthanized and tumors were harvested and fixed in paraformaldehyde 4% overnight at 4° C. After paraffin embedding in an automated tissue processing Sakura Tissue-Tek (E150) (Torrence, Calif.), samples were cut into 5 μm sections, deparafinized, and rehydrated through a graded series of alcohol. Sections were treated with 0.02 mg/ml Proteinase K (Gentra Systems, MN) for 15 minutes at 37° C. to allow for proper antigen retrieval, washed several times in PBS and incubated for 15 minutes in a 0.3% solution of hydrogen peroxide. Sections were blocked and then immunostained with a 1:40 dilution of a PECAM-1 antibody (BD-Pharmingen, CA) overnight at 4° C. in a humidification chamber. Vector ABC Kits (Vector Laboratories Inc, CA) where used following the manufacturer's instruction for the immunostaining. Quantification of tumor vascularization was performed using the stereological dissector method. Briefly, forty consecutive sections were taken from a randomly chosen starting point in each tumor. Five sections for each tumor were selected for stereology by taking one section every eight sections. A dissector counting frame was used with inclusion and exclusion lines throughout the reference area. Vessel count was performed at ×400 magnification with the use of an Olympus microscope connected to a digital video camera. Microvessels were counted in the dissector frame by an experimenter unaware of the different treatment conditions. For each tumor an average vessel count per area of dissector frame was determined. A vascular index was calculated by expressing the vessel count as a percentage of the vessel count in the vehicle treatment condition.
# [4] = system: U-87 MG brain tumor cells; assay: proliferation of U-87 MG brain tumor cells; format: cell-based, human
SMILES,cellular toxicity / viability of human brain endothelial cells versus control [1],"LDH activity in the culture medium, ANOVA main effect [1]",area covered by microvessel outgrowths versus control (explants of rat aortae; 5 μM),area covered by microvessel outgrowths versus control (explants of rat aortae; 10 μM),area covered by microvessel outgrowths versus control (explants of rat aortae; 20 μM),vascularization (vascular index) of U-87 MG tumors versus vehicle [2],growth (tumor volume) of U-87 MG xenografts versus vehicle [2],vascularization (vascular index) of A-549 tumors versus vehicle [3],growth (tumor volume) of A-549 xenografts versus vehicle [3],proliferation of U-87 MG brain tumor cells [4],tumoricidal activity [4],"sprouting of microvessel outgrowths, overall / dose dependence (explants of rat aortae)","sprouting of microvessel outgrowths, overall / dose dependence (explants of rat aortae; listed as Z-VVL-CHO)"
"C[C@H](NC(=O)Cc1cc(F)cc(F)c1)C(=O)N[C@H](C(=O)OC(C)(C)C)c1ccccc1 [DAPT, N-[N-(3,5-difluorophenacetyl-L-alanyl)]-S-phenylglycine t-butyl ester]",without inducing cellular toxicity,significant main effect,appeared to stimulate,no significant difference,inhibit,decreased vascularization; also recorded: significantly reduce the vascularization,completely inhibited the growth; also recorded: inhibit the growth,appeared to be decreased; also recorded: significantly reduce the vascularization,potently suppressed the growth; also recorded: significantly inhibit the growth,dose dependently inhibited the proliferation,did not display tumoricidal activity,,
"CC(C)C[C@@H](C=O)NC(=O)[C@H](CC(C)C)NC(=O)[C@@H](NC(=O)OCc1ccccc1)C(C)C [Z-VLL-CHO, N-benzyloxycarbony-val-leu-leucinal] (Cbz-Val-Leu-Leu-aldehyde)",without affecting their viability,significant main effect,,,,decreased vascularization; also recorded: significantly reduce the vascularization,completely inhibited the growth; also recorded: inhibit the growth,appeared to be decreased; also recorded: significantly reduce the vascularization,potently suppressed the growth; also recorded: significantly inhibit the growth,dose dependently inhibited the proliferation,did not display tumoricidal activity,profoundly anti-angiogenic; also recorded: dose dependently and potently inhibited,dose-dependently inhibits
